Experimental data as given in patent publication US12139520B2 (priority 2020, dated 2024).
Numbered stars: 1 amine (or outer) side, 2 acyl side, 3 side chain; on linkers, the order of the positions; unused ones are H or OH. Bridge positions count the residues as written; N and C are the ends. Square brackets hold non-standard residues; d marks the D form. Side chains are listed from the residue outwards. Peptide text beside a SMILES is read from it. * marks the point of attachment. C20 diacid = O=C(O)CCCCCCCCCCCCCCCCCCC(=O)*; γGlu = O=C(O)[C@H](CCC(=O)[*:2])N[*:1]; Hyp = O=C(O)[C@@H]1C[C@@H](O)CN1; AEEA = NCCOCCOCC(=O)O

Legend:
[1] = target: T1, hAMY3 receptor (Homo sapiens, UniProt O60896+P30988); assay: cAMP assay for in vitro receptor activation, hAMY3-R; type: cell-based; settings: cAMP assay, hAMY3 receptor; read-out: hAMY3R EC50
T1 sequence (P30988 25-474): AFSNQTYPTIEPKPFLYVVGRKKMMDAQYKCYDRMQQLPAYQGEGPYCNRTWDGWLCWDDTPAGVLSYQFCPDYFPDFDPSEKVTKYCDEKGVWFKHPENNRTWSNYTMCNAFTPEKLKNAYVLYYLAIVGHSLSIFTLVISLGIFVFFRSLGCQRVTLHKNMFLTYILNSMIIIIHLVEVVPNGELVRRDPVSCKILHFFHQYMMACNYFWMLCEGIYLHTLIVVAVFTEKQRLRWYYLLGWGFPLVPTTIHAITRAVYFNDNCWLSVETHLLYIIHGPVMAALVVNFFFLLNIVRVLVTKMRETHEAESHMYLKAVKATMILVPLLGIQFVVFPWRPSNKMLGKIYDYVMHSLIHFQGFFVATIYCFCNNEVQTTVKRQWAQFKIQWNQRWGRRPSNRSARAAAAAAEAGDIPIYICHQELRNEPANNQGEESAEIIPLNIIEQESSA
T1 sequence (O60896 24-148 partner): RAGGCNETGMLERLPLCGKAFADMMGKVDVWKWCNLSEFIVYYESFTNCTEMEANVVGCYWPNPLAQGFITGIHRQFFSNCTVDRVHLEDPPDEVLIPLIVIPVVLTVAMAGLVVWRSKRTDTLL
Summary of the method: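 Receptor activation was measured as cAMP accumulation in a monoclonal cell line stably overexpressing hAMY3. Stimulation with graded doses lasted 30 min at room temperature in the presence of 0.5 mM IBMX, with human amylin as positive control.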

[2] = target: hAM1 receptor (Homo sapiens, UniProt O60895+Q16602); assay: cAMP assay for in vitro receptor activation, hAM1-R; type: cell-based; settings: cAMP assay, hAM1 receptor; read-out: hAM1R EC50
Summary of the method: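 cAMP accumulation was measured in a monoclonal cell line stably overexpressing the hAM1 receptor. Frozen aliquots were thawed and plated at 8000 cells/well in DPBS containing 0.05% casein and 0.5 mM IBMX.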

[3] = Acute food intake study in lean rats; type: in vivo, rat; settings: 10 nmol/kg, single SC injection, lean healthy rats; for Average cumulative food intake: up to 48 h, P < 0.001 vs vehicle
Procedure: General Protocols for Acute Food Intake Study
The effect on cumulative food intake was measured in male Sprague Dawley rats (6 weeks of age, Taconic, Denmark) following a single dose using a fully automated food intake monitoring system (HM-2; MBRose ApS, Faaborg, Denmark), allowing for advanced synchronous real-time monitoring of food intake behaviour of individual animals. The animals were housed in groups of 4 in a light-, temperature-, and humidity-controlled room (a 12/12 LD cycle, lights on at 02:00 AM; 22±2° C.; 50% relative humidity). The mice had ad libitum access to regular chow diet (Altromin 1324, Brogaarden A/S, Lynge, Denmark) and domestic quality tap water. Mice arrived at day 7, and a minimum of 5 days of habituation to the system was allowed prior to beginning of the study. During these days, the animals were handled daily to accustom them to the experimental paradigm. On the day of dosing, the animals were randomized into groups according to body weight. Animals were fasted for four hours prior to dosing. Animals were dosed SC 30 or 180 min prior to lights out, and food intake data were collected automatically for a total of 48 h post-dosing with automatic food recordings every 5 min.

[4] = Physical stability of peptide analogues (Thioflavin T fibrillation); type: physicochemical; settings: maximum ThT signal normalized between hAMY maximum and buffer background; 40° C., shaking, four days; pH 7 per table title
Summary of the method: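 Samples are stressed at 40 °C for four days, being shaken at 700 rpm before each 10-min fluorescence reading of 4 μM Thioflavin T. Buffers were pH 4 acetate or pH 7 phosphate. Reported values are smoothed maximum ThT signals as a percentage of the hAMY-to-background range.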

Chain of hAM1 receptor (Q16602 23-461): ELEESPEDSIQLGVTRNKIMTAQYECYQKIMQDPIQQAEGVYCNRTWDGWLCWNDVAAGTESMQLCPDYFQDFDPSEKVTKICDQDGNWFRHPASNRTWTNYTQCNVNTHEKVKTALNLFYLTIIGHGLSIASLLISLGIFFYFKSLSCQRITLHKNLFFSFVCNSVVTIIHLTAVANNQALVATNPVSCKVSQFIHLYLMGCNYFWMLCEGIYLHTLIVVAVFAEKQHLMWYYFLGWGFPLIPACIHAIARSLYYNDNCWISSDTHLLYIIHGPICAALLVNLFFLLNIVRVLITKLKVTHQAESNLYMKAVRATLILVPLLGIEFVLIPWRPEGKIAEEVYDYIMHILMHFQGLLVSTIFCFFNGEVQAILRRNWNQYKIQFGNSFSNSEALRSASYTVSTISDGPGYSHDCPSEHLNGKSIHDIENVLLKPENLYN
Chain of hAM1 receptor (O60895 43-175 partner): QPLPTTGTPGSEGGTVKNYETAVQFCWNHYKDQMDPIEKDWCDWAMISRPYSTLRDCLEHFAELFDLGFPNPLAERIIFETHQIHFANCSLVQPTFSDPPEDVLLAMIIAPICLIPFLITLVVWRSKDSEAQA

Row | Structure (SMILES) | EC50 [1] [nM] | EC50 [2] [nM] | Max ThT signal (%) [4] [%] | cumulative food intake, % to vehicle [3] [%] | Average cumulative food intake [3] [g]
1 | CC[C@H](C)[C@H](NC(=O)[C@H](CCC(N)=O)NC(=O)[C@H](Cc1c[nH]cn1)NC(=O)[C@H](C)NC(=O)[C@H](CC(C)C)NC(=O)[C@H](CCCNC(=N)N)NC(=O)[C@H](CCC(N)=O)NC(=O)[C@@H](NC(=O)[C@@H](NC(=O)[C@@H]1CSSC[C@H](NC(=O)[C@H](CCCCN)NC(=O)CC[C@H](NC(=O)CCCCCCCCCCCCCCCCCCC(=O)O)C(=O)O)C(=O)N[C@@H](CC(N)=O)C(=O)N[C@@H]([C@@H](C)O)C(=O)N[C@@H](C)C(=O)N[C@@H]([C@@H](C)O)C(=O)N1)[C@@H](C)O)C(C)C)C(=O)N[C@@H](C)C(=O)N[C@@H](CCC(N)=O)C(=O)N[C@@H](Cc1ccccc1)C(=O)N[C@H](C(=O)N[C@@H](CC(=O)O)C(=O)N[C@@H](CCCCN)C(=O)N[C@@H](CC(=O)O)C(=O)N[C@@H](CCCCN)C(=O)N[C@@H](CC(=O)O)C(=O)N[C@@H](CC(N)=O)C(=O)N[C@H](C(=O)N[C@@H](C)C(=O)N1CCC[C@H]1C(=O)N1CCC[C@H]1C(=O)N[C@H](C(=O)N[C@@H](CC(N)=O)C(=O)N[C@H](C(=O)NCC(=O)N[C@@H](CO)C(=O)N[C@@H](CC(N)=O)C(=O)N[C@@H](CO)C(=O)N1C[C@H](O)C[C@H]1C(N)=O)C(C)C)[C@@H](C)O)C(C)C)[C@@H](C)O [compound 69] ({C20 diacid-γGlu}-KCNTATCTVQRLAHQIAQFTDKDKDNVAPPTNVGSNS[Hyp]-NH2; disulfide 2-7) | 0.013 | – | – | 17.52 | 7.13
2 | CC[C@H](C)[C@H](NC(=O)[C@H](CCC(N)=O)NC(=O)[C@H](CCC(=O)O)NC(=O)[C@H](C)NC(=O)[C@H](CC(C)C)NC(=O)[C@H](CCCNC(=N)N)NC(=O)[C@H](CCC(N)=O)NC(=O)[C@@H](NC(=O)[C@@H](NC(=O)[C@@H]1CSSC[C@H](NC(=O)[C@@H](N)CCCCN)C(=O)N[C@@H](CC(N)=O)C(=O)N[C@@H]([C@@H](C)O)C(=O)N[C@@H](C)C(=O)N[C@@H]([C@@H](C)O)C(=O)N1)[C@@H](C)O)C(C)C)C(=O)N[C@@H](Cc1ccc(O)cc1)C(=O)N[C@@H](CCC(N)=O)C(=O)N[C@@H](Cc1ccccc1)C(=O)N[C@H](C(=O)N[C@@H](CC(=O)O)C(=O)N[C@@H](CCCCN)C(=O)N[C@@H](CC(=O)O)C(=O)N[C@@H](CCCCN)C(=O)N[C@@H](CC(=O)O)C(=O)N[C@@H](CC(N)=O)C(=O)N[C@H](C(=O)N[C@@H](C)C(=O)N1CCC[C@H]1C(=O)N1CCC[C@H]1C(=O)N[C@H](C(=O)N[C@@H](CC(N)=O)C(=O)N[C@H](C(=O)NCC(=O)N[C@@H](CO)C(=O)N[C@@H](CCCCNC(=O)COCCOCCNC(=O)COCCOCCNC(=O)CC[C@H](NC(=O)CCCCCCCCCCCCCCCCCCC(=O)O)C(=O)O)C(=O)NCC(=O)N1C[C@H](O)C[C@H]1C(N)=O)C(C)C)[C@@H](C)O)C(C)C)[C@@H](C)O [compound 6] (H-KCNTATCTVQRLAEQIYQFTDKDKDNVAPPTNVGSK([AEEA-AEEA-γGlu-C20 diacid])G[Hyp]-NH2; disulfide 2-7; N-terminus assumed) | 0.006 | > 5000 | – | 65.63 | 27.5
3 | CC[C@H](C)[C@H](NC(=O)[C@H](CCC(N)=O)NC(=O)[C@H](Cc1c[nH]cn1)NC(=O)[C@H](C)NC(=O)[C@H](CC(C)C)NC(=O)[C@H](CCCNC(=N)N)NC(=O)[C@H](CCC(N)=O)NC(=O)[C@@H](NC(=O)[C@@H](NC(=O)[C@@H]1CSSC[C@H](NC(=O)[C@H](CCCCN)NC(=O)CC[C@H](NC(=O)CCCCCCCCCCCCCCCCCCC(=O)O)C(=O)O)C(=O)N[C@@H](CC(N)=O)C(=O)N[C@@H]([C@@H](C)O)C(=O)N[C@@H](C)C(=O)N[C@@H]([C@@H](C)O)C(=O)N1)[C@@H](C)O)C(C)C)C(=O)N[C@H](C(=O)N[C@@H](CCC(N)=O)C(=O)N[C@@H](Cc1ccccc1)C(=O)N[C@H](C(=O)N[C@@H](CC(=O)O)C(=O)N[C@@H](CCCCN)C(=O)N[C@@H](CC(=O)O)C(=O)N[C@@H](CCCCN)C(=O)N[C@@H](CC(=O)O)C(=O)N[C@@H](CC(N)=O)C(=O)N[C@H](C(=O)N[C@@H](C)C(=O)N1CCC[C@H]1C(=O)N1CCC[C@H]1C(=O)N[C@H](C(=O)N[C@@H](CC(N)=O)C(=O)N[C@H](C(=O)NCC(=O)N[C@@H](CO)C(=O)N[C@@H](CC(N)=O)C(=O)NCC(=O)N1C[C@H](O)C[C@H]1C(N)=O)C(C)C)[C@@H](C)O)C(C)C)[C@@H](C)O)C(C)C [compound 85] ({C20 diacid-γGlu}-KCNTATCTVQRLAHQIVQFTDKDKDNVAPPTNVGSNG[Hyp]-NH2; disulfide 2-7) | 0.015 | > 5000 | – | 45.70 | 18.6

Now from value to compound, other results behind:

Row | EC50 [1] [nM] | EC50 [2] [nM] | Max ThT signal (%) [4] [%] | Structure (SMILES) | cumulative food intake, % to vehicle [3] [%] | Average cumulative food intake [3] [g]
4 | 0.016 | > 5000 | – | CC[C@H](C)[C@H](NC(=O)[C@H](C)NC(=O)CNC(=O)[C@H](Cc1ccccc1)NC(=O)[C@H](CC(N)=O)NC(=O)[C@H](CC(N)=O)NC(=O)[C@H](CO)NC(=O)[C@H](CO)NC(=O)[C@H](Cc1c[nH]cn1)NC(=O)[C@@H](NC(=O)[C@H](CC(C)C)NC(=O)[C@H](Cc1ccccc1)NC(=O)[C@H](CC(N)=O)NC(=O)[C@H](C)NC(=O)[C@H](CC(C)C)NC(=O)[C@H](CCCNC(=N)N)NC(=O)[C@H](CCC(N)=O)NC(=O)[C@@H](NC(=O)[C@H](C)NC(=O)[C@@H]1CSSC[C@H](NC(=O)[C@@H](N)CCCCN)C(=O)N[C@@H](CC(N)=O)C(=O)N[C@@H]([C@@H](C)O)C(=O)N[C@@H](C)C(=O)N[C@@H]([C@@H](C)O)C(=O)N1)[C@@H](C)O)C(C)C)C(=O)N[C@@H](C)C(=O)N1CCC[C@H]1C(=O)N[C@@H](CO)C(=O)N[C@H](C(=O)N[C@@H](CCCCN)C(=O)N[C@H](C(=O)NCC(=O)N[C@@H](CO)C(=O)N[C@@H](CC(N)=O)C(=O)NCC(=O)N[C@@H](Cc1ccc(O)cc1)C(N)=O)C(C)C)[C@@H](C)O [compound 93] (H-KCNTATCATQRLANFLVHSSNNFGAIAPSTKVGSNGY-NH2; disulfide 2-7; N-terminus assumed) | 46.93 | 19.1
5 | 0.027 | – | 4.800 | CC[C@H](C)[C@H](NC(=O)[C@H](CCCCN)NC(=O)[C@@H](NC(=O)[C@H](CCCNC(=N)N)NC(=O)[C@@H]1CCCN1C(=O)[C@H](C)NC(=O)[C@@H](NC(=O)[C@H](CC(N)=O)NC(=O)[C@H](CC(=O)O)NC(=O)[C@H](CCCCN)NC(=O)[C@H](CC(=O)O)NC(=O)[C@H](CCCCN)NC(=O)[C@H](CC(=O)O)NC(=O)[C@@H](NC(=O)[C@H](Cc1ccccc1)NC(=O)[C@H](CCC(N)=O)NC(=O)[C@H](Cc1ccc(O)cc1)NC(=O)[C@@H](NC(=O)[C@H](CCC(N)=O)NC(=O)[C@H](Cc1c[nH]cn1)NC(=O)[C@H](C)NC(=O)[C@H](CC(C)C)NC(=O)[C@H](CCCNC(=N)N)NC(=O)[C@H](CCC(N)=O)NC(=O)[C@@H](NC(=O)[C@@H](NC(=O)[C@@H]1CSSC[C@H](NC(=O)CN)C(=O)N[C@@H](CCCNC(=N)N)C(=O)N[C@@H](Cc2ccccc2)C(=O)NCC(=O)N[C@@H]([C@@H](C)O)C(=O)N1)[C@@H](C)O)C(C)C)[C@@H](C)CC)[C@@H](C)O)C(C)C)[C@@H](C)O)C(=O)NCC(=O)N1CCC[C@H]1C(=O)N[C@@H](CC(N)=O)C(=O)NCC(=O)N1C[C@H](O)C[C@H]1C(N)=O [compound 124] (H-GCRFGTCTVQRLAHQIYQFTDKDKDNVAPRTKIGPNG[Hyp]-NH2; disulfide 2-7) | 59.46 | 24.2
